This experiment concerns human bone marrow mesenchymal stem cells (MSCs). Briefly: Proliferation of human bone marrow MSCs in basic medium with E2 or E3 (MTS, Example 3). It is filed as cell-based. The method, then: This study investigates the mitogenic effects of estrogen receptor ligands on human bone marrow MSCs that is not contacted with osteogenic or adipogenic medium. Purified human bone marrow mesenchymal stem cells (MSCs) were purchased commercially. MSCs were respectively exposed to basic medium (DMEM+10% FBS+1% antibiotics), and basic medium supplement with 10^−6 and 10^−9 M 17-β estradiol (E2) and estriol (E3) for approximately one week. Then, various cells were plated into 96-well plates in 500 cells/well and continued to be exposed to the media. After 4 days, cell densities were measured by MTS methods and compared to initial densities. FIG. 8 illustrates the increase of the number of MSCs after being treated with basic medium and basic medium supplemented with E2 or E3.

With `C[C@]12CC[C@@H]3c4ccc(O)cc4CC[C@H]3[C@@H]1C[C@@H](O)[C@@H]2O` [E3, estriol], the “cell proliferation (MTS assay and cell counting)” value (10^−6 and 10^−9 M, about one week then 4 days in 96-well plates, FIG. 8) is listed as “greatly increased”. Besides, the “differentiation capabilities (adipogenic and osteogenic) of modulated MSCs” value (vs controls) was “maintain their differentiation capabilities”.

The values above are taken from patent US20080118980A1, “Estrogen Enhancing Differentiation of Human Mesenchymal Stromal Cells and Adipose-derived Stromal Cells” (The Board of Trustees of the University of Illinois,, priority 2006, published 2008).
